Data reported in article PMC2680940 (Biochemistry, 2009).

Tests used:
[1] = molecular target: T1, 4-chlorobenzoate:CoA ligase (CBL) (Alcaligenes sp. AL3007, UniProt Q8GN86, D402A); assay: continuous spectrophotometric assay at […] nm, initial velocity; assay type: biochemical; settings: 20 μM 4-CB, 10 mM CoA, 15 mM MgCl2, 50 mM K+HEPES pH 7.5, 25 °C
T1 sequence (Q8GN86 1-504 D402A): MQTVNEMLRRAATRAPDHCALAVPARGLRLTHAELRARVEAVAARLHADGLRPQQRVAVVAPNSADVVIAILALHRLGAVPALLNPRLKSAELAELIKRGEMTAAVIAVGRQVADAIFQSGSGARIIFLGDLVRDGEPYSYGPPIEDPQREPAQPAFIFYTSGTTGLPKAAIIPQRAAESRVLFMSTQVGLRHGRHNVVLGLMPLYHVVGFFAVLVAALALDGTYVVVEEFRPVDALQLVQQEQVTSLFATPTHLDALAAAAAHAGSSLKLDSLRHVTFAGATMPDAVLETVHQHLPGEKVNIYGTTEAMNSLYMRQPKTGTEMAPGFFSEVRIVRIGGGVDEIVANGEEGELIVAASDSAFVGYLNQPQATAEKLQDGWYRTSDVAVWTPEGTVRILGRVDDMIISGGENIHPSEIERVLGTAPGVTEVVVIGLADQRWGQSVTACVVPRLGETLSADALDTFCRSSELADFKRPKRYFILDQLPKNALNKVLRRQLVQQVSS

[2] = molecular target: T2, 4-chlorobenzoate:CoA ligase (CBL) (Alcaligenes sp. AL3007, UniProt Q8GN86, D402P); assay: as above; assay type: biochemical; settings: 20 μM 4-CB, 10 mM CoA, 15 mM MgCl2, 50 mM K+HEPES pH 7.5, 25 °C
T2 sequence (Q8GN86 1-504 D402P): T1 sequence (Q8GN86 1-504 D402A)

In the case of `Nc1ncnc2c1ncn2[C@@H]1O[C@H](COP(=O)(O)OP(=O)(O)OP(=O)(O)O)[C@@H](O)[C@H]1O` [ATP, adenosine-5′-triphosphate], the Km [1] is reported as 28.1 ± 0.9 µM and the Km [2] is reported as 13.1 ± 0.7 µM.
